Here are results for six compounds from paper PMC8661510, “Computational study, synthesis and evaluation of active peptides derived from Parasporin-2 and spike protein from Alphacoronavirus against colorectal cancer cells” (Bioscience Reports, 2021).

The nature of data set [1]: Hemolytic activity assay. In kind it is cell-based. Conditions: human, erythrocytes; 150 μM peptide; relative to 0.1% Triton X-100; read-out: %HC50 at 150 μM (percentage of hemolysis).
The subject of data set [2] is SW480 cells. Conditions: for EC50: 48 h; for percentage of viability SW480 cells: human, 150 µM.
Data set [3] deals with SW620 cells. As to conditions: for EC50: 48 h; for percentage of cell viability SW620 cells: human, 150 µM.
The test system of data set [4] is SW480 cells. Briefly: cells. Conditions: Homo sapiens, SW480, 48 h.
The subject of data set [5] is SW620 cells. In words: cells. As to conditions: Homo sapiens, SW-620, 48 h.
Data set [6] concerns SW620 cells. In words: Annexin V-Cy3/6-CFDA staining, SW620. In kind it is cell-based, Human. As to conditions: EC50 concentration, 24 and 48 h. The method, then:
(§1) The presence of phosphatidylserine at the cell surface was detected by phosphatidylserine binding protein annexin V conjugated with Cy3 using the commercially available Annexin V-Cy3 apoptosis detection kit (APOAC, Apoptosis Detection Kit, Sigma). […] The PBS and binding buffer were used to wash the adherent cells and the washed cell adherents were suspended in 50 µl of Ann-Cy3 and 6-CFDA. Then, the plates were incubated for 10 min in the dark. Afterwards, the excess label was removed by washing the cells with binding buffer. EVOS M7000 digital inverted fluorescence microscope (ThermoFisher Scientific; Waltham, MA, U.S.A.) was used to observe Ann-Cy3 and 6-CFDA-labeled cells. This assay allowed one to differentiate live cells (green), necrotic cells (red), and apoptotic cells (red nuclei and green cytoplasm). The percentage of cells reflecting apoptotic and necrotic cells was manually calculated. Data were collected for three replicates and used to calculate the respective means and standard deviations.

Data set [7] has as its system SW480 cells. In words: Annexin V-Cy3/6-CFDA staining, SW480. The format is cell-based, Human. Conditions: EC50 concentration, 24 and 48 h. The method, then:
as §1

Where two headings read alike, the source gives them in different places. No end group written: not given here.

As usually defined, the EC50 is the concentration needed to bring the measured effect to its halfway point. Consider “PARDVLNTTSG-NH2 [P264-G274, PARDVLNTTSG-NH2]”, for which, in data set [1], the hemolysis at 150 μM was 12.2%. For the same compound, in data set [2], the half-maximal effective concentration (EC50) turned out to be 90.98 ± 0.75 µM and the “percentage of viability SW480 cells” value worked out at 41.6%. For the same compound, in data set [3], a half-maximal response (EC50) required 11.3 ± 0.52 µM and the “percentage of cell viability SW620 cells” value is 16.5%.

The term viability denotes a per cent measure of how many cells are alive, often set against a control. In the case of `O=c1[nH]cc(F)c(=O)[nH]1` [5-FU, 5-Fluorouracil], the EC50 in data set [4] (read-out: EC50 SW480) came out at 24.4 ± 0.82 µM; in data set [5] (read-out: EC50 SW620), 11.9 ± 1.2 µM. The viability at 150 µM worked out at 18.9% in data set [4] (read-out: percentage of viability SW480 cells) and 2.8% in data set [5] (read-out: percentage of cell viability SW620 cells). Besides, the “Annexin V-Cy3/6-CFDA staining result” value in data set [6] and in data set [7] was “Same results” throughout.

“FKPQSGGGKCF-NH2 [Loop1-HCoV-229E, FKPQSGGGKCF-NH2]”: in data set [1], the hemolysis at 150 μM was determined as 9.2%. Also, in data set [2], the EC50 came to 125 ± 1.32 µM and the “percentage of viability SW480 cells” value is recorded as 56.2%. Moreover, in data set [3], the EC50 was > 150 µM and the “percentage of cell viability SW620 cells” value was 55.2%.

With “TYFNAVKPPITA-NH2 [Loop2-PS2Aa, TYFNAVKPPITA-NH2]”, the hemolysis at 150 μM in data set [1] was 9.4%. Also, in data set [2], the EC50 amounted to 93 ± 0.98 µM and the “percentage of viability SW480 cells” value was 39.5%. For the same compound, in data set [3], a half-maximal effect (EC50) was put at 16 ± 0.69 µM and the “percentage of cell viability SW620 cells” value was 24.1%.

As for “H-FLGWLFKVASK-NH2 [A4W-GGN5, FLGWLFKVASK-NH2, reference compound]”, the hemolysis at 150 μM in data set [1] came to 23%. In addition, in data set [2], the EC50 was found to be 98.6 ± 1.17 µM and the “percentage of viability SW480 cells” value came out at 41.8%. Further, in data set [3], the midpoint of the response, the EC50, lay at 22.1 ± 1.63 µM and the “percentage of cell viability SW620 cells” value came out at 32.2%.

Regarding “NNETYFNAVKP-NH2 [Loop1-PS2Aa, NNETYFNAVKP-NH2]”, the hemolysis at 150 μM in data set [1] was 18.1%. In data set [2], the EC50 worked out at 23.8 ± 1.25 µM and the “percentage of viability SW480 cells” value amounted to 16%. In addition, in data set [3], the EC50 came out at 106 ± 1.67 µM and the “percentage of cell viability SW620 cells” value stood at 46.8%.
